Source: patent US8198327B2, “Fatty acid amides and uses thereof” (Yissum Research Development Company of the Hebrew …, priority 2008, dated 2012)
Entries after “also recorded” stand apart in the source; their conditions may differ. Like-named read-outs stand apart in the source and are kept apart here.

Assays:
[1] = test system: MC3T3 E1 osteoblastic cells; test: MC3T3 E1 osteoblastic cell assay (cell number / proliferation); format: cell-based
Source text: FIGS. 1(A)-1(F) are graphical depictions of screening of fatty acid derivatives identified in brain for proliferative activity in MC3T3 E1 osteoblastic cells. (A), oleoyl-serine (HU-639); (B), palmitoyl-serine; (C), arachidonoyl-serine (HU-362); (D), arachidonoyl-ethanolamide; (E), palmitoyl-ethanolamide; (F), 2-arachidonoylglycerol. Data are mean±SE obtained in 3 culture wells per condition.
FIG. 9 represents methylated oleoyl-serine (HU-639) derivatives α-methyl oleoyl serine (HU-671) and 2-methyl-oleoyl serine (HU-681)) stimulation of MC3T3 E1 osteoblastic cell number at concentration 10- to 100-fold lower than HU-639. Data are mean±SE obtained in 3 culture wells per condition. *, ANOVA, p<0.05 vs. ligand-free control (Cntl).
(§1) Several lipid compounds present in the brain stimulated the proliferation of MC3T3 E1 osteoblast-like cells in vitro (FIG. 1). […] The HU-639 mitogenic effect was confirmed measuring BrdU incorporation in the MC3T3 E1 cells and in primary calvarial osteoblasts (FIG. 4A). […] Typical of some osteoblast mitogenic agents [Miguel et al, 2005], the dose-response curves representing oleoyl-serine (HU-639) activity in culture are bell shaped, with the peak stimulation of cell number followed by reversal of the effect to baseline levels (FIGS. 4A, 4B).
The oleoyl-serine derivatives α-methyl oleoyl serine (HU-671) and 2-methyl-oleoyl serine (HU-681) were tested in the MC3T3 E1 osteoblastic cell assay, HU-671 and HU-681 stimulated cell number with respective peak effects at 10^−12 M and 10^−13 M as compared to 10^−11 M of the parent HU-639 molecule (FIG. 9).

Erk1/2 phosphorylation [2] = test: Erk1/2 phosphorylation in osteoblasts; format: cell-based
Source text: (§2) FIGS. 4(A)-4(E) represents signaling of oleoyl-serine (HU-639) in osteoblasts. *, ANOVA, p<0.05 vs. oleoyl-serine (HU-639)-free control (Cntl).
as §1

RANKL expression = test: RT-PCR analysis of RANKL expression in bone marrow-derived primary stromal cells; format: cell-based
Source text: (§3) (A), number of intact osteoclasts with the use of oleoyl-serine (HU-639); (B), number of apoptotic osteoclasts; (C), representative photomicrograph of culture oleoyl-serine (HU-639)-free control culture; (D), representative photomicrograph of culture treated with 10^−10 M oleoyl-serine (HU-639); (E), immunoblot analysis of Erk1/2 phosphorylation in preosteoclast-like RAW 264.7 cells. (F), RT-PCR analysis of RANKL and OPG expression in bone marrow-derived primary stromal cells. Quantitative data are mean±SE obtained in 3 culture wells per condition. Arrows indicate, apoptotic osteoclasts; *, ANOVA, p<0.05 vs. oleoyl-serine (HU-639)-free control (Cntl).
(§4) This inhibition is likely to have a restraining effect on osteoclast survival [Kim et al, 2009].

[3] = test system: ovariectomized (OVX) mice; test: Ovariectomy (OVX) mouse model of osteoporosis, microCT and histomorphometry of distal femoral metaphysis; format: in vivo
Protocol: FIG. 6 oleoyl-serine (HU-639) rescues ovariectomy (OVX)-induced trabecular bone loss in mouse distal femoral metaphysis. Mice were OVXed or sham-OVXed and left untreated for 6 weeks to allow for bone loss. Thereafter, OVXed mice were treated by i.p. administration of oleoyl-serine (HU-639), 5 mg/Kg/day for 6 weeks and subjected to qualitative and quantitative analysis by microcomputed tomography. BV/TV, trabecular bone volume density. VEH, ethanol/emulphor/saline solvent. Data are mean±SE obtained in 6-8 mice per condition.
VEH, ethanol/emulphore/saline solvent. Histomorphometric analysis based on vital labeling of newly formed bone by calcein. Data are mean±SE obtained in 6-8 mice per condition. *, ANOVA, p<0.05 vs. Sham-OVX.
VEH, ethanol/emulphore/saline solvent. Osteoclast counts were based on osteoclast specific staining with tartrate-resistant acid phosphatase. Data are mean±SE obtained in 6-8 mice per condition. *, ANOVA, p<0.05 vs. Sham-OVX and OVX/VEH.
Based on the in vitro screening, the in vivo skeletal activity of oleoyl-serine (HU-639) in an ovariectomy (removal of ovaries; OVX) mouse model, the most widely used animal model for osteoporosis, was analyzed. Using this experimental system for testing bone anabolic activity, OVXed mice are left untreated to allow for bone loss to occur, followed by a treatment period intended for reversal of the bone loss [Alexander et al, 2001]. […] To further elucidate the process leading to the oleoyl-serine (HU-639) rescue of OVX-induced bone loss, the same mice were subjected to an analysis of bone formation and resorption by computerized histomorphometry (HM).

MC3T3 E1 cells = test: BrdU incorporation in MC3T3 E1 cells; format: cell-based
Source text: as §1

osteoclasts = test: Osteoclast survival in ex vivo culture of bone marrow-derived monocytes with M-CSF and RANKL; format: cell-based, mouse; conditions: 4 days with M-CSF and RANKL
Source text: as §3, §4

Erk1/2 phosphorylation [4] = test: Immunoblot analysis of Erk1/2 phosphorylation in preosteoclast-like RAW 264.7 cells; format: cell-based
Source text: as §3, §4

[5] = test system: primary calvarial osteoblasts; test: BrdU incorporation in primary calvarial osteoblasts; format: cell-based
Source text: as §1

osteoblasts = test: Blockade of oleoyl-serine (HU-639) mitogenic activity in osteoblasts; format: cell-based; conditions: MEK inhibitor, inhibition of Erk1/2 phosphorylation
Source text: as §2, §1

For `CCCCCCCC/C=C\CCCCCCCC(=O)NC(C)(CO)C(=O)O` (racemic) [HU-671, N-oleoly α-methyl-DL-serine], the “concentration of peak effect on cell number” value (shortened to “concentration of peak effect”) [1] was 10^−12 M.

`CCCCCCCC/C=C\CCCCCCCC(=O)N[C@@H](CO)C(=O)O` [HU-639, N-Oleoyl L-Serine] was tested, and the Erk1/2 phosphorylation (Erk1/2 phosphorylation [2]) was “stimulates Erk1/2 phosphorylation”, the RANKL expression (RANKL expression) was “inhibits RANKL expression” and the “reversal of bone loss compared with parathyroid hormone (1-34)” value ([3]; comparison with literature [Alexander et al, 2001]) was “greater than the reversal of bone volumetric density by parathyroid hormone (1-34)”. For the same compound, the “bone resorption, osteoclast counts (TRAP staining)” value ([3]; distal femoral metaphyseal trabecular bone) was “decreasing of osteoclast number; also recorded: markedly inhibited bone resorption”, the “mineral appositional rate (MAR)” value ([3]; histomorphometry, calcein labeling) was “stimulated mineral appositional rate” and the “overall trabecular bone formation” value ([3]; histomorphometry, compared to sham- and vehicle-treated OVXed controls) was “stimulation of trabecular bone formation; also recorded: stimulation of overall bone formation”. The “difference in trabecular bone volume density (BV/TV) vs controls” value ([3]; vs vehicle treated OVXed controls (so in the source)) was “statistically insignificant”, the “concentration of peak effect” value [1] was 10^−11 M and the “osteoblastic proliferation activity / potency” value [1] was “highest potency”. The cell number ([1]; at 10^−11 M concentration) was “more than doubling cell number”, the “osteoblastic proliferation activity / potency” value ([1]; listed as oleoyl serine) was “considerably more potent” and the “shape of dose-response curves in culture” value (MC3T3 E1 cells; FIGS. 4A, 4B, peak stimulation of cell number followed by reversal to baseline) was “bell shaped”. The “mitogenic effect by BrdU incorporation” value (MC3T3 E1 cells; MC3T3 E1 cells) was “confirmed”, the osteoclast apoptosis (osteoclasts) was “stimulating osteoclast apoptosis” and the “osteoclast survival (number of intact osteoclasts)” value (osteoclasts) was “inhibition of osteoclast survival; also recorded: inhibits osteoclast survival”. The Erk phosphorylation (Erk1/2 phosphorylation [4]) was “reduced Erk phosphorylation, mainly p42” and the “mitogenic effect by BrdU incorporation” value [5] was “confirmed”.

`CCCCCCCC/C=C\CCCCCCC(C)C(=O)N[C@@H](CO)C(=O)O` (stereo partly drawn) [HU-681, 2-Methyl Oleoyl-L-Serine] was tested, and the “concentration of peak effect” value [1] was 10^−13 M.

In the case of `COc1cccc(-c2cc(=O)c3ccccc3o2)c1N` [PD98059], the “blockade of oleoyl-serine (HU-639) mitogenic activity” value (osteoblasts) is reported as “blocks the oleoyl-serine (HU-639) mitogenic activity dose-dependently”.

In the case of `CCCCC/C=C\C/C=C\C/C=C\C/C=C\CCCC(=O)NCCO` [anandamide, arachidonoyl ethanolamide, reference compound], the “osteoblastic proliferation activity / potency” value [1] is reported as “some osteoblastic proliferation activity”.

With `CCCCC/C=C\C/C=C\C/C=C\C/C=C\CCCC(=O)N[C@@H](CO)C(=O)O` [arachidonoyl serine, N-arachidonoyl-serine, reference compound] the “osteoblastic proliferation activity / potency” value [1] was “some osteoblastic proliferation activity”.

In the case of `CCCCCCCCCCCCCCCC(=O)NCCO` [palmitoyl ethanolamide, reference compound], the “osteoblastic proliferation activity / potency” value [1] is reported as “some osteoblastic proliferation activity”.
